Reference: the supplement of paper PMC5908809

Tests used:
[1] = test system: SNK-6 (IL-2 2.5 ng/mL); experiment: drug sensitivity score (DSS) (DSS units); higher = more sensitive; extreme values may be limits of the assay; conditions: 72 h
[2] = test system: YT (IL-2 2.5 ng/mL); experiment: as above; conditions: 72 h
[3] = test system: normal primary NK cells, pool 1 (3 donors) (IL-2 2.5 ng/mL); experiment: as above; conditions: 72 h
[4] = test system: normal primary NK cells, pool 3 (3 donors) (IL-2 2.5 ng/mL); experiment: as above; conditions: 72 h
[5] = test system: DERL-7 (IL-2 2.5 ng/mL); experiment: as above; conditions: 72 h
[6] = test system: NK-92 (IL-2 2.5 ng/mL); experiment: as above; conditions: 72 h
[7] = test system: KAI3 (IL-2 2.5 ng/mL); experiment: as above; conditions: 72 h
[8] = test system: normal primary NK cells, pool 1 (3 donors), resting (IL-2 0 ng/mL); experiment: as above; conditions: 72 h
[9] = test system: KHYG-1 (IL-2 2.5 ng/mL); experiment: as above; conditions: 72 h
[10] = test system: NK-YS (IL-2 2.5 ng/mL); experiment: as above; conditions: 72 h
[11] = test system: normal primary NK cells, pool 2 (3 donors) (IL-2 2.5 ng/mL); experiment: as above; conditions: 72 h
[12] = test system: IMC-1 (IL-2 20 ng/mL); experiment: as above; conditions: 72 h
[13] = test system: NKL (IL-2 2.5 ng/mL); experiment: as above; conditions: 72 h
[14] = test system: SNK-6 (IL-2 2.5 ng/mL); experiment: percent inhibition of viability; higher = more inhibition; conditions: 72 h
[15] = test system: YT (IL-2 2.5 ng/mL); experiment: as above; conditions: 72 h
[16] = test system: normal primary NK cells, pool 1 (3 donors) (IL-2 2.5 ng/mL); experiment: as above; conditions: 72 h
[17] = test system: normal primary NK cells, pool 3 (3 donors) (IL-2 2.5 ng/mL); experiment: as above; conditions: 72 h
[18] = test system: DERL-7 (IL-2 2.5 ng/mL); experiment: as above; conditions: 72 h
[19] = test system: NK-92 (IL-2 2.5 ng/mL); experiment: as above; conditions: 72 h
[20] = test system: KAI3 (IL-2 2.5 ng/mL); experiment: as above; conditions: 72 h
[21] = test system: normal primary NK cells, pool 1 (3 donors), resting (IL-2 0 ng/mL); experiment: as above; conditions: 72 h
[22] = test system: KHYG-1 (IL-2 2.5 ng/mL); experiment: as above; conditions: 72 h
[23] = test system: NK-YS (IL-2 2.5 ng/mL); experiment: as above; conditions: 72 h
[24] = test system: normal primary NK cells, pool 2 (3 donors) (IL-2 2.5 ng/mL); experiment: as above; conditions: 72 h
[25] = test system: IMC-1 (IL-2 20 ng/mL); experiment: as above; conditions: 72 h
[26] = test system: NKL (IL-2 2.5 ng/mL); experiment: as above; conditions: 72 h
[27] = test system: normal NK cells expanded with K562-aAPC; experiment: as above; conditions: 72 h, IL-2 2.5 ng/mL
Experimental: (§1)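 Drug sensitivity and resistance testing on K562-aAPC-expanded normal NK cells: 5 concentrations (10-fold steps over a 10,000-fold range), 72 h at 37 °C, viability by CellTiter-Glo normalised to DMSO and benzethonium chloride controls; DSS from the fitted curve.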

[28] = test system: normal NK cells expanded with K562-aAPC; experiment: drug sensitivity score (DSS) (DSS units); higher = more sensitive; extreme values may be limits of the assay; conditions: 72 h; IL-2 2.5 ng/mL
Experimental: as §1

C[C@]12CC[C@H](O)CC1=CC[C@@H]1[C@@H]2CC[C@]2(C)C(c3cccnc3)=CC[C@@H]12 [Abiraterone] (max concentration tested 5000 nM)
Conditions | drug sensitivity score
[1] | 0.89
[2] | 0
[3] | 0
[4] | 0
[5] | 0
[6] | 3.2
[7] | 1.81
[8] | 1
[9] | 0
[10] | 0.2
[11] | 0
[12] | 1.72
[13] | 0
[28] | 0.21

percent inhibition of viability [%]
Conditions | 0.5 nM | 5 nM | 50 nM | 500 nM | 5000 nM
[14] | -4.3 | -11.1 | -26.2 | -25.2 | -1.46
[15] | -0.02 | 9.21 | -0.43 | 11.5 | 4.01
[16] | -9.05 | -7.76 | 5.1 | -0.54 | -7.49
[17] | 5.18 | 4.84 | 1.7 | 15.9 | -1.9
[18] | -1.84 | 6.7 | -3.24 | 8.85 | -0.3
[19] | 3.02 | 0.66 | 4.19 | 19.8 | 18.9
[20] | 4.32 | 6.7 | 11.6 | 12.4 | 18.3
[21] | 2.81 | 1.54 | 10.1 | 10.2 | 16.1
[22] | 2.05 | 18.6 | -0.59 | 2.88 | 6.94
[23] | 4.24 | -1.71 | 1.76 | 0.55 | 14
[24] | -1.86 | 7.99 | 1.79 | 9.51 | 6.09
[25] | -0.05 | 0.08 | 1.73 | 4.6 | 25.9
[26] | 8.55 | 9.91 | 1.09 | 12.8 | 9.69
[27] | -3.92 | -2.08 | -4.35 | -1.44 | 15.5

CC(C)(C#N)c1cc(Cn2cncn2)cc(C(C)(C)C#N)c1 [Anastrozole] (max concentration tested 10000 nM)
Conditions | drug sensitivity score
[1] | 0
[2] | 0
[3] | 0
[4] | 0
[5] | 0
[6] | 0
[7] | 0
[8] | 0
[9] | 0
[10] | 0
[11] | 0
[12] | 0
[13] | 0
[28] | 0

percent inhibition of viability [%]
Conditions | 1 nM | 10 nM | 100 nM | 1000 nM | 10000 nM
[14] | -1.06 | 23.5 | 22.5 | -18.6 | 2.15
[15] | 6.09 | -6.8 | 6.6 | -5.12 | 8.27
[16] | -5.66 | -8.98 | -13.5 | 1.93 | -12.4
[17] | -11.2 | -0.62 | -6.71 | -6.71 | -5.25
[18] | 1.86 | 1.72 | 1.5 | 4.62 | 1.85
[19] | 2.62 | -14.9 | -4.14 | -11.2 | 0.08
[20] | 4.34 | -3.23 | 4.57 | -3.97 | 4.8
[21] | 0.43 | -12.5 | -9.34 | -4.56 | 1.51
[22] | -3.64 | -8.98 | -2.57 | -9.89 | -0.45
[23] | -0.21 | -1.51 | -0.63 | -2.69 | -1.18
[24] | -14.1 | -1.97 | -6.31 | -1.14 | -6.99
[25] | -2.19 | -4.02 | -0.27 | -6.87 | -2.18
[26] | -3.4 | -8.92 | 1.02 | -7.99 | 1.34
[27] | -3.07 | -7.42 | -9.56 | -10 | -14.1

Cn1cc(CNCC2CCN(c3ncc(C(=O)NO)cn3)CC2)c2ccccc21 [Quisinostat] (max concentration tested 1000 nM)
Conditions | drug sensitivity score
[1] | 12.2
[2] | 14.3
[3] | 24.6
[4] | 22.2
[5] | 23.7
[6] | 15.1
[7] | 20.6
[8] | 28.6
[9] | 19.9
[10] | 19.7
[11] | 25.2
[12] | 17.2
[13] | 23.6
[28] | 21.9

percent inhibition of viability [%]
Conditions | 0.1 nM | 1 nM | 10 nM | 100 nM | 1000 nM
[14] | 1.8 | 20.8 | -18.7 | 56.4 | 99.2
[15] | 0.16 | -4.15 | 0.59 | 77.7 | 97.8
[16] | -12.9 | 4.2 | 58.6 | 97.3 | 96.1
[17] | -2.24 | -1.5 | 32.9 | 96.6 | 97.4
[18] | 4.2 | 1.75 | 46.9 | 99.6 | 99.1
[19] | -10.6 | -6.5 | 15.2 | 70.9 | 93.4
[20] | -2.72 | 8.43 | 36.8 | 88.8 | 97.3
[21] | -8.56 | 21.3 | 79 | 90.3 | 90
[22] | -1.89 | -1.8 | 12.5 | 99.3 | 97.8
[23] | -1.23 | 0.57 | 20.6 | 92.9 | 97.7
[24] | -0.78 | 3.43 | 67.6 | 93.8 | 93.9
[25] | -4.98 | -0.52 | -8.31 | 99.6 | 99.7
[26] | -9.03 | -1.25 | 43.9 | 99.4 | 96.7
[27] | -4.41 | 2.67 | 27.3 | 98.9 | 99.5
